Results: patent US20200315960A1, “DRUG DELIVERY DEVICE AND METHOD” (BIORINGS LLC, priority 2019, published 2020)

Tests used:
[1] = system: human sperm; assay: Effect of various concentrations on the motility of human sperm; type: cell-based; settings: for concentration shown to be spermiostatic: motility of human sperm; for spermiostatic effects: lower concentrations of albumin and dextran
Excerpt: The effects of various concentrations of magnesium chloride, calcium chloride, ferrous sulfate, copper sulfate, and ferrous gluconate on the motility of human sperm were studied.

[2] = Effect on viscosity of cervical mucus; settings: concentrations from 0.310% to a range of 1-2.5%

## [Ca+2].[Cl-].[Cl-] [Calcium chloride]
[1]
  concentration shown to be spermiostatic: 25 mM

## O=S(=O)([O-])[O-].[Cu+2] [Copper sulfate]
[1]; 25 mM solutions
  immobilization of sperm: 93.3%
[1]; 37.5 mM solutions
  immobilization of sperm: completely immobilized all the sperm
[1]
  concentration shown to be spermiostatic: 6.25 mM

## O=C1O[C@H]([C@@H](O)CO)C(O)=C1O [L-ascorbic acid]
[2]
  overall viscosity of the mucus: increases in direct relationship with increasing concentrations

## [Cl-].[Cl-].[Mg+2] [magnesium chloride]
[1]
  concentration shown to be spermiostatic: 35 mM

## Ferrous sulfate
[1]; complete arrest of motility
  concentration that completely arrested the motility of human sperm: 10 mM

## albumin
[1]; 20% albumin
  sperm completely immobilized: ~97%
[1]; 40% albumin
  sperm completely immobilized: ~97%
[1]; albumin concentration 10%
  sperm motility: decreased sperm motility almost close to that of 12.5 mM concentration of ferrous gluconate
[1]
  spermiostatic effects: not significant

## dextran
[1]; 1.25% solution of dextran
  sperm immobilized: ~95%
[1]
  spermiostatic effects: not significant

## ferrous gluconate
[1]; 25 mM solutions
  immobilization of sperm: 97.4%
[1]; 37.5 mM solutions
  immobilization of sperm: completely immobilized all the sperm
[1]
  concentration shown to be spermiostatic: 12.5 mM

## ferrous gluconate [dihydrate form of ferrous gluconate]
[1]; in the presence of the dihydrate form
  onset of spermiostatic effect: immediate
